ChEMBL document CHEMBL1201862, “PubChem BioAssay data set” (2004)
Activity calls are given as the source filed them.

Columns and labels:
Streptokinase A = target: T1, Streptokinase A (Streptococcus pyogenes serotype M1, UniProt P10520); test: viability-normalized secreted streptokinase activity reduction – plasminogen activation absorbance, OD405, dose response (AID 1914); format: functional, Streptococcus pyogenes M1 GAS;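 further: secreted streptokinase activity via plasminogen activation per viability signal from cell pellet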
T1 sequence (P10520 whole entry): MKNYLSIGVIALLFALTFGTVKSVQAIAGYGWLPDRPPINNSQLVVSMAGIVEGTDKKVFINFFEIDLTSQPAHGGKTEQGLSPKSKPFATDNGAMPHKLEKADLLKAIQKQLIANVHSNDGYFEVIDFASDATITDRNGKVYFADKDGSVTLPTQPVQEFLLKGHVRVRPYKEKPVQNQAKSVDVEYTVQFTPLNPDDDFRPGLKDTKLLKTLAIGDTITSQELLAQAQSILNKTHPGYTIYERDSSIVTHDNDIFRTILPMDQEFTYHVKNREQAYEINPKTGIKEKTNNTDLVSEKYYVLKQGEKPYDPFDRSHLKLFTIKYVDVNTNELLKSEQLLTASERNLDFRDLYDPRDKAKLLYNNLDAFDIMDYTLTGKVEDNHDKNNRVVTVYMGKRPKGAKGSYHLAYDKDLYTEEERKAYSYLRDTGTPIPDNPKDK

Streptococcus = test: GAS UMAA2166 growth inhibition – luminescence, BacTiterGlo, counter-screen for streptokinase expression inhibitor project, dose response (AID 1915); format: functional, organism-based;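 further: potency for reduction of bacterial viability or growth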
[1] = target: T2, Replicative DNA helicase DnaB (Mycobacterium tuberculosis, UniProt P9WMR3); test: DnaB intein splicing inhibitors, dose response, biochemical, cell-free fluorescence (AID 449749); format: functional
T2 sequence (P9WMR3 whole entry): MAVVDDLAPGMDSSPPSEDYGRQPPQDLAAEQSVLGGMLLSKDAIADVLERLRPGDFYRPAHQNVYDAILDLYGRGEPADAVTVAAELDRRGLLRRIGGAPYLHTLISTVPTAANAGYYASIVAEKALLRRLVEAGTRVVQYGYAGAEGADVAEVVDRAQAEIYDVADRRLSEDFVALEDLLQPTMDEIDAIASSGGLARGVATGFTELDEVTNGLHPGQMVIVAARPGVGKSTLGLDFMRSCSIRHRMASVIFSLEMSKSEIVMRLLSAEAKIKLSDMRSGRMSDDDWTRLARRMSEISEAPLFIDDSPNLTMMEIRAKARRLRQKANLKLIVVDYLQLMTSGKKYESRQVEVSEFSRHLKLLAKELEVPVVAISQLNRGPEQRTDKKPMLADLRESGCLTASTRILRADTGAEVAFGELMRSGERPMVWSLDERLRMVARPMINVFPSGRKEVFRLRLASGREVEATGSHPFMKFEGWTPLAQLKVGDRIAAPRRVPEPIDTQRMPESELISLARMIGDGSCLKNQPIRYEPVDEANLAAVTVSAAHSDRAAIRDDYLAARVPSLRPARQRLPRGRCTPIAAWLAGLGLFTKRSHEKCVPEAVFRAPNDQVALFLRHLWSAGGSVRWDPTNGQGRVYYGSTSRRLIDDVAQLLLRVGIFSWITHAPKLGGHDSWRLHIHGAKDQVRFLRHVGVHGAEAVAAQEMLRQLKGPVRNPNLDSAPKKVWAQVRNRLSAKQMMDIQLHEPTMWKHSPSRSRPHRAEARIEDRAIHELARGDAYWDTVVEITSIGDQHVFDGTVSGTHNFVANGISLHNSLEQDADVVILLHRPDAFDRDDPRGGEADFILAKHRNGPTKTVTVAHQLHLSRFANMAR

Protein RecA = target: T3, Protein RecA (Mycobacterium tuberculosis, UniProt P9WHJ3); test: Fluorescence Cell-Free Homogeneous Dose Retest to Identify Inhibitors of RecA-Intein Splicing Activity. [Related pubchem assays (depositor defined):AID2097, AID2223, AID489010, AID492950]; format: functional
T3 sequence (P9WHJ3 whole entry): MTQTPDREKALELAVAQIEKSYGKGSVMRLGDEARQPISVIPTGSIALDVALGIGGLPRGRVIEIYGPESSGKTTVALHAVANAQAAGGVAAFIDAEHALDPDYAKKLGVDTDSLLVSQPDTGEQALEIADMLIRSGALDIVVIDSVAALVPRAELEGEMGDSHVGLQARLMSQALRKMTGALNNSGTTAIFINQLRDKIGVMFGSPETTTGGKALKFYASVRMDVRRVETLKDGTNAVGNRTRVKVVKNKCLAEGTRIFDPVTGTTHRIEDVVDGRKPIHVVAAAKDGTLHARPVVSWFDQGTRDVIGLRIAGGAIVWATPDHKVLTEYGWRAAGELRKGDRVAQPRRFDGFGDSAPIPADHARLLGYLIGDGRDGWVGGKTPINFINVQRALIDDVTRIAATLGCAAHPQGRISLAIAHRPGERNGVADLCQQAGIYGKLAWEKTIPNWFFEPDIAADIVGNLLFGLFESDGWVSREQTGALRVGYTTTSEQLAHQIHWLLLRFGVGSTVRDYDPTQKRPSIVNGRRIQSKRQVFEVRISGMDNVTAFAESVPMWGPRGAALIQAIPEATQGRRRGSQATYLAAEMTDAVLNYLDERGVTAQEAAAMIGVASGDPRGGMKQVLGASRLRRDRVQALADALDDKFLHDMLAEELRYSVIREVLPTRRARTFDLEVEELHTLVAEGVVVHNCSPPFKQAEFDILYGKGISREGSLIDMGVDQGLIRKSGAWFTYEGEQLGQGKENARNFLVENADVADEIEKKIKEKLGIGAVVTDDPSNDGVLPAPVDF

Caspase-3 = target: T4, Caspase-3 (Homo sapiens, UniProt P42574); format: functional;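 further: Dose-response selectivity test against caspase-3 for candidate inhibitors of sentrin-specific proteases (SENPs)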
T4 sequence (P42574 whole entry): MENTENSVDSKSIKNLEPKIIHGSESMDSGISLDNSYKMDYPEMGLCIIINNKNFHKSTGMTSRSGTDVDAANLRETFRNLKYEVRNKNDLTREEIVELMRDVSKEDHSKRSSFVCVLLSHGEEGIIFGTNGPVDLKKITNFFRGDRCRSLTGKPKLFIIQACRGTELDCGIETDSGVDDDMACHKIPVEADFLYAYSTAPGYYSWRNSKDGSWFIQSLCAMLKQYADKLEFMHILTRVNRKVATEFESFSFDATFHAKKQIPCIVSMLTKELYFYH

[2] = target: T5, Sentrin-specific protease 8 (Homo sapiens, UniProt Q96LD8); format: functional;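 further: luminescence read-out of SENP8 inhibition, dose-response confirmation following an ultra-high-throughput screen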
T5 sequence (Q96LD8 whole entry): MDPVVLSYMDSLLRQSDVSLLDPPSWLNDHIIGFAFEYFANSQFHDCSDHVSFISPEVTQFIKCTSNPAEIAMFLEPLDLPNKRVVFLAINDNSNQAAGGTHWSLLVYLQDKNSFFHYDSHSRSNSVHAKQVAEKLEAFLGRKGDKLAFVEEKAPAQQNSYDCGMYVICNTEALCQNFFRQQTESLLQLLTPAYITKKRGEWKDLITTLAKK

CCC1CCCCN1S(=O)(=O)c1ccc(NC(=O)c2nc(S(C)(=O)=O)ncc2Cl)cc1 (configuration not stated)
EC50 (Streptokinase A): 0.66 µM (active) | EC50 (Streptococcus): 13.2 µM (active) | AC50 [1]: 1.43 µM (active) | EC50 (Protein RecA): 1.11 µM (active)

CCCC[n+]1ccn(C2=C([N-]S(=O)(=O)c3ccc(Cl)cc3)C(=O)c3ccccc3C2=O)c1
IC50 (Caspase-3): 55.7 µM (active) | IC50 [2]: 38.2 µM (active)

CC(=O)c1cccc2c1N=C(c1[nH]c3ccccc3c1O)C2=O
EC50 (Streptokinase A): 116 µM (active) | EC50 (Streptococcus): > 150 µM (not active) | IC50 (Caspase-3): 11.1 µM (active) | IC50 [2]: 12.3 µM (active) | AC50 [1]: 3.1 µM (active) | EC50 (Protein RecA): 2.76 µM (active)
